Assay results reported in patent US20100316575A1, “MODULATING BODY WEIGHT” (priority 2008, published 2010).

Target: T1, KATP channels (Mus musculus, UniProt P70170+Q61743)
T1 construct: Pacing perfused hearts isolated from WT and Kir6.2-KO mice; from tissue; host or cells: isolated, retrogradely perfused and paced hearts of wild-type mice
Test: Rate-dependent action potential duration (APD90) in paced, perfused isolated hearts
Set-up: species or system mice
Settings: isolated perfused paced WT mouse hearts, KATP-channel blockade with glyburide, FIG. 5B
Excerpt: FIG. 5. […] The KATP channel-dependent component in rate-dependent action potential shortening was verified in WT hearts following KATP-channel blockade with the sulfonylurea blocker glyburide (FIG. 5B). […] Maximal oxygen consumption (V O2max), corresponding to the highest tolerated workload, reflects the maximal rate of energy production and the ability of the cardiovascular system to supply oxygen. Kir6.2-KO and WT mice achieved the same level of V O2max reflecting their equivalent oxidative phosphorylation potential. […] This was associated with high lactate levels in the blood (FIG. 5E), indicating compromise of the cardiovascular system. Activity-related energy expenditure largely reflects the performance of cardiac and skeletal muscle, tissues with abundant KATP channel expression. Accordingly, cardiac muscle was used as a model of striated musculature. As cardiac function and associated energy consumption depends on electrical determinants, the contribution of KATP channels in heart rate-dependent modulation of action potential duration and rate of oxygen consumption were tested. Telemetry recording of cardiac activity defined that both WT and Kir6.2-KO mice display a heart rate profile with a 400 to 800 beats per minute range (FIG. 5A). […]

T1 sequence (Q61743 whole entry, the tested form may be a part): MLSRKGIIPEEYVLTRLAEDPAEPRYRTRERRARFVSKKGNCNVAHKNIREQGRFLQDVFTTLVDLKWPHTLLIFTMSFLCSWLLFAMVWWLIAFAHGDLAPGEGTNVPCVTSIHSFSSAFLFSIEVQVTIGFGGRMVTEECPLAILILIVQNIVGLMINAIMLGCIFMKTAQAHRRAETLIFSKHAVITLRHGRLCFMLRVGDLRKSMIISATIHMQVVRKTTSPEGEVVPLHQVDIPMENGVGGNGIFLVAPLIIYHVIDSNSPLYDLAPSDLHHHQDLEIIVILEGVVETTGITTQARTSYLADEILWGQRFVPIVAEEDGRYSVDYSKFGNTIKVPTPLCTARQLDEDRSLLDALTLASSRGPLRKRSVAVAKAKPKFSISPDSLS
T1 sequence (P70170 whole entry, the tested form may be a part): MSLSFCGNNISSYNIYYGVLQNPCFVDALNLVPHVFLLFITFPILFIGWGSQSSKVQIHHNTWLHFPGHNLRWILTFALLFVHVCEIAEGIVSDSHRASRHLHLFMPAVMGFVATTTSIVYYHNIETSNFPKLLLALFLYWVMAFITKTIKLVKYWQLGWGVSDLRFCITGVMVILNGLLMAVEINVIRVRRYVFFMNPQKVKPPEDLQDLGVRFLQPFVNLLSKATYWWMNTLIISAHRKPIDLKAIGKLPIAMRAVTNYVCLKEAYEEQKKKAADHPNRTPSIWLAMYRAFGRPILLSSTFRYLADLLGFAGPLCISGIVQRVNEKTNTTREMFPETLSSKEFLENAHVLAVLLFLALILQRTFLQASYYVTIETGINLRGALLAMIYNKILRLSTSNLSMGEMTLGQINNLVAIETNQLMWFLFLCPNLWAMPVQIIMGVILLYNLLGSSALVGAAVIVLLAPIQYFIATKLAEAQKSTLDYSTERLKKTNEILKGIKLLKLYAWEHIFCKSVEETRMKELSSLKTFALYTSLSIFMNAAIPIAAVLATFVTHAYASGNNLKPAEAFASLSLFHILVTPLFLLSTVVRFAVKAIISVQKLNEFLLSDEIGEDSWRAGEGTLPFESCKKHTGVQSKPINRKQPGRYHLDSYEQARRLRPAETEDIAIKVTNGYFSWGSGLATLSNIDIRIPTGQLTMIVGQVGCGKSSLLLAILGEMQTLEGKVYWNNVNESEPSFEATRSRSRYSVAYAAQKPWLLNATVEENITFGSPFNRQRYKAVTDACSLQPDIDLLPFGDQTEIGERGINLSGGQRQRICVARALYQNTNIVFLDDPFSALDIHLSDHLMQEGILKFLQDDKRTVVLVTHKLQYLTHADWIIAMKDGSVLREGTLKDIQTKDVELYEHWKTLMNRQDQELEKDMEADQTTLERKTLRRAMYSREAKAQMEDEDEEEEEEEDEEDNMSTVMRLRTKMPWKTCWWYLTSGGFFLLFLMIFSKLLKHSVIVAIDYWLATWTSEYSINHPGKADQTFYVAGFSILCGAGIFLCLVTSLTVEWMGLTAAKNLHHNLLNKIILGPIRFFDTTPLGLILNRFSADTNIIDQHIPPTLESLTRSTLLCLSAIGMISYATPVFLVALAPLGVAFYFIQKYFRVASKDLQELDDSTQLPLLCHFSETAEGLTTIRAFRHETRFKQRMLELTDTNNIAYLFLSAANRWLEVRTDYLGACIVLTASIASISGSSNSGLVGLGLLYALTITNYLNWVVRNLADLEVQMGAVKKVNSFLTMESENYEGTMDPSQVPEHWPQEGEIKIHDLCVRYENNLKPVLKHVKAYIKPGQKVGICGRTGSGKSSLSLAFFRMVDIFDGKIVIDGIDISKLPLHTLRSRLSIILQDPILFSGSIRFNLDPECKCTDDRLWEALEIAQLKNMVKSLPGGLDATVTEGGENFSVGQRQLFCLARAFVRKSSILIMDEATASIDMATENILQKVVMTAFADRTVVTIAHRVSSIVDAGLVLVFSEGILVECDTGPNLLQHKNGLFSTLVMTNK

**Q.** How did the “KATP channel-dependent component in rate-dependent action potential shortening (monophasic APD90)” value turn out when COc1ccc(Cl)cc1C(=O)NCCc1ccc(S(=O)(=O)NC(=O)NC2CCCCC2)cc1 [glyburide] was run?
**A.** verified
